# Where a name gives a salt, the structure may show the parent alone.
# Legend:
# BP-17 phytase [1] = assay: Thermal inactivation of BP-17 phytase at 70° C. in the presence of stabilizing salts, residual activity by colorimetric assay; type: biochemical, Buttiauxella sp.; conditions: for phytase activity state: 70° C.
# Experimental: An experiment was performed to determine whether the addition of excipients during thermal stress conditions allows the phytase enzyme to retain its activity. A temperature was selected at which the phytase enzyme is completely inactivated in the absence of excipient after 30-minutes incubation. Excipient solutions were prepared at their highest solubility. then titrated from highest to lowest concentrations prior to their addition to the phytase UFC. The enzyme/excipient combinations were then exposed to a temperature of 70° C., and the residual activity was measured after 2, 5, 10, 20, 30, and 60-minutes incubation via a colorimetric activity assay
# A 20% (or 1.41 M) sodium phosphate solution was prepared by dissolving 5 grams of sodium phosphate dibasic anhydrous into 25 mL of water. The pH was adjusted to 5.5 using concentrated phosphoric acid. A 25% (or 0.85 M) sodium citrate solution was prepared by dissolving 5 grams of sodium citrate dihydrate into 20 mL of water. The pH was adjusted to 5.5 using 80% citric acid.
# A volume of 80 μL of the 20% sodium phosphate stock solution was added to the first well of 8 different 12-well PCR strips. A volume of 40 μL of −Q water was added to wells 2, 3. 4, 5, and 6 of each PCR strip. The sodium phosphate stock solution was serially diluted 2-fold sequentially from well 1 to well 6. A volume of 80 μL of the 25% sodium citrate stock solution was added to well 7 of each PCR strip. A volume of 40 μL of water was added to wells 8, 9, 10, 11, and 12 of each PCR strip. The sodium citrate stock solution was serially diluted 2-fold sequentially from well 7 to well 11, leaving well 12 to contain water only. The BP-17 phytase UFC was diluted 50-fold in autoclaved water. A volume of 40 μL of the diluted UFC was added to each well of the 8 different 12-well PCR strips containing the diluted excipients.
# The temperature cycler was programmed to a temperature of 70° C. One PCR strip was sealed and placed immediately on ice for the time zero measurement. The remaining PCR strips were sealed, placed inside the PCR, incubated for varying increments of time (0.5, 2, 5, 10, 20, 30, and 60 minutes), then removed from the PCR and placed immediately on ice. After each of the PCR strips had been collected on ice, they were placed on a 96-well PCR tube rack and centrifuged for 2 minutes at 3500 rpm.
# As some precipitation occurred during thermal inactivation, the PCR strips were subjected to centrifugation and the supernatant was removed and diluted with assay buffer (0.1 M acetate Buffer pH 5.5+0.05% w/v Tween 20) to a final activity of 0.012 FTU/mL in a non-binding (Corning 3641) 96-well plate. A volume of 40 μL was transferred from the enzyme dilution plate into a separate reaction plate (Costar 9017, medium binding). A volume of 40 μL of substrate (150 μM sodium phytate) was then added to each of the wells of the reaction plate. The reaction plate was sealed and incubated for 10 minutes at 25° C. and 900 rpm. A volume of 170 μL of Pi Blue stop/color reagent (POPB-500 by BioAssay Systems US) was then added to each well of the reaction plate to stop the reaction. The plate was sealed and incubated for 30 minutes at 25° C. and 400 rpm for color development, then read in a spectrophotometer at 620 nm.
# BP-17 phytase [2] = assay: Mechanism of inhibition: phytase activity with titrated substrate and titrated excipient (PNPP assay); type: biochemical, Buttiauxella sp.; conditions: ambient assay conditions (25° C.)
# Experimental: Kinetic analysis was performed to determine the mechanism of stabilization of both the sodium phosphate and sodium citrate with respect to the phytase enzyme by measuring the activity of phytase in the presence of both titrated substrate and titrated excipient concentrations.
# The BP-17 phytase UFC was diluted 7,000-fold in 0.1 M acetate buffer pH 5.5.
# The substrate stock solution (400 mM) was prepared by dissolving 0.923 grams of 4-nitrophenyl phosphate di (tris) salt into 5 mL of 0.25 M acetate buffer pH 5.5. A volume of 200 μL of the substrate stock solution was added to columns 1 and 7 of a 96-well plate. A volume of 100 μL of 0.25 M acetate Buffer pH 5.5 was added to columns 2-6 and 8-12 of the same 96-well plate. Serial dilutions were performed by transferring 100 μL from column 1 into column 2 of the 96-well plate, and then repeating this dilution pattern across the plate to column 6 so that the following substrate concentrations were made: 400, 200, 100, 50, 25, and 12.5 mM. The same serial dilutions were performed across the second half of the plate from columns 7 to 12.
# A 20% (or 1.41 M) sodium phosphate solution was prepared by dissolving 5 grams of sodium phosphate dibasic anhydrous into 25 mL of 0.1 M acetate buffer pH 5.5. […]
# BP-17 phytase [3] = assay: Phytase melting temperature (Tm) in the presence of excipients, differential scanning fluorimetry (nanoDSF); type: physicochemical, Buttiauxella sp.
# Experimental: An experiment was performed to determine whether the addition of different excipients during thermal exposure increases the melting temperature of the phytase enzyme in the liquid state. Excipient solutions were prepared at their highest solubility, then titrated from highest to lowest concentrations prior to their addition to the phytase UFC. The enzyme/excipient combinations were then exposed to a temperature profile of 21-95° C., and the melting temperatures were measured via differential scanning fluorimetry. The concentration of phytase in the UFC was measured at 123.9 g/L via HPLC. […] A 20% phytic acid solution was prepared by dissolving 1 gram of phytic acid into 5 mL of 0.1 M acetate buffer pH 5.5. The pH was adjusted from 4.2 to 5.47 using 20% NaOH, and then the solution was filtered using a 0.45 μM syringeless filter. A 25% sodium sulfate anhydrous solution was prepared by dissolving 5 grams into 20 mL of water. The pH was adjusted to 5.6 using sulfuric acid, and then the solution was filtered using a 0.45 μM syringeless filter. A 20% sodium polyphosphate solution was prepared by dissolving 5 grams into 25 mL of water. The pH was adjusted to 5.6 using concentrated phosphoric acid, and then the solution was filtered using a […] syringeless filter. […] The pH was adjusted to 5.6 using 80% citric acid, and then the solution was filtered using a 0.45 μM syringeless filter. A 20% sodium phosphate dibasic solution was prepared by dissolving 2 grams into 10 mL of water. The pH was adjusted to 5.6 using concentrated phosphoric acid, and then the solution was filtered using a 0.45 μM syringeless filter. A volume of 100 μL of an excipient stock solution was added to well A in column 1 of a 96-well plate. A volume of 50 μL of water was added to each well B-H in column 1 of the same 96-well plate. The excipient stock solution was titrated 2-fold down the column of the plate by transferring 50 μL into each subsequent well. A volume of 80 μL of the pH adjusted UFC was added to each of the wells in column 1 of a new 96-well plate. A volume of 20 μL was transferred from each well of the titrated excipient directly into the corresponding well containing the UFC. The 96-well plate containing the enzyme and excipient combinations was mixed on a plate shaker for 5 seconds. Standard capillaries for the nanoDSF were filled by dipping a capillary in each well of the 96-well plate, and then loading onto the Nanotemper instrument. The Nanotemper instrument was programmed to run at 10% excitation power and 21-95° C. with a 1° C./minute ramp. The Nanotemper instrument monitors the shift of intrinsic tryptophan fluorescence of proteins upon unfolding by measuring wavelengths at 330 and 350 nm.
structure (smiles),measurement,setting,value
"O.O.O=C([O-])CC(O)(CC(=O)[O-])C(=O)[O-].[Na+].[Na+].[Na+] [sodium citrate, Sodium citrate dihydrate, reference compound]",phytase activity retained,"BP-17 phytase [1]; 425 mM sodium citrate, 60-minutes incubation at 70° C., FIG. 7",approximately 90%
same,phytase activity retained,"BP-17 phytase [1]; half of 425 mM sodium citrate, 60-minutes incubation at 70° C., FIG. 7",≤ 50%
same,phytase activity state,"BP-17 phytase [1]; sodium citrate below half of 425 mM, FIG. 7",inactivated
same,excipient concentration at which phytase activity loss levels out,"BP-17 phytase [2]; increasing phytic acid substrate, FIG. 9",≥ 26 mM
"O=P([O-])([O-])O.[Na+].[Na+] [sodium phosphate, Sodium phosphate, dibasic, anhydrous]",stabilizing effect on Tm compared with other excipients,"BP-17 phytase [3]; equivalent molar ratios to the phytase, normalized for anion equivalents, FIG. 4","greater than that of sodium phytate, sodium polyphosphate, and sodium sulfate"
same,increase in melting temperature of phytase,"BP-17 phytase [3]; molar ratio of 130:1 sodium phosphate to phytase, phytase UFC, liquid state, FIGS. 2 and 3",approximately 5.5 °C
same,increase in melting temperature compared with citrate,"BP-17 phytase [3]; normalized for charge equivalents, FIG. 5",much higher
same,relative residual phytase activity retained,"BP-17 phytase [1]; 352 mM sodium phosphate, 60-minutes incubation at 70° C., FIG. 6",approximately 90%
same,phytase activity retained,"BP-17 phytase [1]; half of 352 mM sodium phosphate, 60-minutes incubation at 70° C., FIG. 6",approximately 60%
same,phytase activity state,"BP-17 phytase [1]; sodium phosphate below half of 352 mM, FIG. 6",nearly inactivated
same,phytase activity in presence of excipient and substrate,"BP-17 phytase [2]; 150 mM sodium phosphate and 100 mM phytic acid substrate, FIG. 8",very little activity
"O=P(O)(O)O[C@H]1[C@H](OP(=O)(O)O)[C@@H](OP(=O)(O)O)[C@H](OP(=O)(O)O)[C@@H](OP(=O)(O)O)[C@H]1OP(=O)(O)O [sodium phytate, Phytic acid sodium salt hydrate, reference compound]",increase in Tm of phytase,"BP-17 phytase [3]; molar ratio of 14:1 sodium phytate to phytase, phytase UFC, liquid state, FIG. 1",approximately 2.7 °C

# Source: patent US12570970B2, “Inorganic phosphate as a stabilizer for phytase enzymes” (DANISCO US INC, priority 2018, dated 2026)
